# Results from ChEMBL document CHEMBL1201862, “PubChem BioAssay data set” (2004).
# Calls of active or inactive are those of the source.
# How the values were obtained:
# [1] = NIH-3T3 fibroblast cytotoxicity, dose response, cytotoxicity control, cell-based, fluorescence, Alamar Blue, secondary assay (AID 2327); format: functional;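 further: NIH-3T3 mouse fibroblasts cultured with fluconazole at 8 µg/mL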
# INS1 = experiment: beta cell apoptosis inhibitors, cytokine rescue, dose response, luminescence, retest (AID 449756); format: functional, cell-based; conditions: Rattus norvegicus, INS1;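 further: cell death triggered by IL-1 beta plus TNF-alpha plus IFN-gamma mixture; protective hits raise ATP signal compared with cytokine alone wells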
# [2] = C. albicans growth with fluconazole, confirmation, fluorescence, retest (AID 2467); format: functional, cell-based
# Genome polyprotein = Genome polyprotein (dengue virus type 2, UniProt P29990); experiment: Dengue-2 NS5 methyltransferase inhibitors, primary screen, biochemical, confirmation dose response (AID 588689); format: functional
# [3] = molecular target: T1, Rac GTPase-activating protein 1 (Homo sapiens, UniProt Q9H0H5); experiment: MgcRacGAP GTPase-activating activity inhibitors, confirmation, biochemical, ADP Hunter fluorescence, primary and confirmatory (AID 624330); format: functional
# T1 sequence (Q9H0H5 whole entry): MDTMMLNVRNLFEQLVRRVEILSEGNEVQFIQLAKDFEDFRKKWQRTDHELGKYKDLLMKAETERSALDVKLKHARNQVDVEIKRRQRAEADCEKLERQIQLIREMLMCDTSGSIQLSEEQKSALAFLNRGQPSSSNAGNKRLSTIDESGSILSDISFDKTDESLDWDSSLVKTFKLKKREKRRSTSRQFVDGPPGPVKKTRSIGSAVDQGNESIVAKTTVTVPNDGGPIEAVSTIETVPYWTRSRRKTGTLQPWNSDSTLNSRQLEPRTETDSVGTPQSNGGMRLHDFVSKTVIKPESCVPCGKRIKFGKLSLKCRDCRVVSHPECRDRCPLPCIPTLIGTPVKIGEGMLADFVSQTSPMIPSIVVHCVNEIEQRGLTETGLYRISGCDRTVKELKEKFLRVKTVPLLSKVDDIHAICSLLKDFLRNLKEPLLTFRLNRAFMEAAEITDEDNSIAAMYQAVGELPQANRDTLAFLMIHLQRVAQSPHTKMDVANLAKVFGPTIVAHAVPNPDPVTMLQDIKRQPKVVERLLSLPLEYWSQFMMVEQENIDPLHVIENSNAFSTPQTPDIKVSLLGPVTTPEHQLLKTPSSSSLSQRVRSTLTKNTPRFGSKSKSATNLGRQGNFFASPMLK
# cells = format: functional
# [4] = molecular target: T2, Carboxy-terminal domain RNA polymerase II polypeptide A small phosphatase 1 (Homo sapiens, UniProt Q9GZU7); experiment: inhibitors of CTDSP1, concentration-response testing, biochemical assay, absorbance-based, actives from ultra-high-throughput screening (AID 540297); format: functional
# T2 sequence (Q9GZU7 whole entry): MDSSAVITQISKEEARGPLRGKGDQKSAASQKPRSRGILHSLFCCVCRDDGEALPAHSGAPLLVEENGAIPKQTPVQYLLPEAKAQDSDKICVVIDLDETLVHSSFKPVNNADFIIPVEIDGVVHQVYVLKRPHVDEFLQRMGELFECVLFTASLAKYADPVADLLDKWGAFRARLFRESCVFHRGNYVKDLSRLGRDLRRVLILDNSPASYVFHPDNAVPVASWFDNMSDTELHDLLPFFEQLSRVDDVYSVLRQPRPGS
# Protein skinhead-1 = molecular target: T3, Protein skinhead-1 (Caenorhabditis elegans, UniProt P34707); format: functional
# T3 sequence (P34707 whole entry): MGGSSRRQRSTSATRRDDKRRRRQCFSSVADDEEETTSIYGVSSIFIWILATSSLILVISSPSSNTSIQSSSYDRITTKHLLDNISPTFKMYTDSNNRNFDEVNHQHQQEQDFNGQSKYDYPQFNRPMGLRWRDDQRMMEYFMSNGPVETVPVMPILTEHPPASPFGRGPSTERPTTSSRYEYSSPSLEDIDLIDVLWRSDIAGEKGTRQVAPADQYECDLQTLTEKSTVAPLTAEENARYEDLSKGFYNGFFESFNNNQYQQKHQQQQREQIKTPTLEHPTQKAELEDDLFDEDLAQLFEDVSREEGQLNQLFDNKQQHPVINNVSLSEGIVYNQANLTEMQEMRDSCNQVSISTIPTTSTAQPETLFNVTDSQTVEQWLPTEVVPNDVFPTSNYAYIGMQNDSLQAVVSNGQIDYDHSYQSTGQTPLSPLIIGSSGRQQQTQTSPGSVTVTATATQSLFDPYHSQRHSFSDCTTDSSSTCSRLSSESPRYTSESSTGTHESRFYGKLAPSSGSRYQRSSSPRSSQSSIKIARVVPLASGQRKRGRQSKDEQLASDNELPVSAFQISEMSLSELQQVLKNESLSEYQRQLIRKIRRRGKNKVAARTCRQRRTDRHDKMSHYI
# [5] = molecular target: Glucose-6-phosphate 1-dehydrogenase (Homo sapiens, UniProt P11413); experiment: human G6PD enzyme inhibitors, dose response, selectivity assay for P. falciparum G6PD inhibitor project, biochemical, fluorescence (AID 504792); format: functional
# [6] = molecular target: T4, Heat shock factor protein 1 (Mus musculus, UniProt P38532); experiment: HSF1 potentiators in luciferase reporter cells, confirmation, cell-based, NIH3T3, luminescence, dose retest (AID 435004); format: functional;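 further: stress induced by proteasome inhibitor MG132 added 30 min after compound; luciferase reporter driven by HSF1 response element in NIH3T3 cells; actives raise luminescence as potentiators of the MG132 stress response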
# T4 sequence (P38532 whole entry): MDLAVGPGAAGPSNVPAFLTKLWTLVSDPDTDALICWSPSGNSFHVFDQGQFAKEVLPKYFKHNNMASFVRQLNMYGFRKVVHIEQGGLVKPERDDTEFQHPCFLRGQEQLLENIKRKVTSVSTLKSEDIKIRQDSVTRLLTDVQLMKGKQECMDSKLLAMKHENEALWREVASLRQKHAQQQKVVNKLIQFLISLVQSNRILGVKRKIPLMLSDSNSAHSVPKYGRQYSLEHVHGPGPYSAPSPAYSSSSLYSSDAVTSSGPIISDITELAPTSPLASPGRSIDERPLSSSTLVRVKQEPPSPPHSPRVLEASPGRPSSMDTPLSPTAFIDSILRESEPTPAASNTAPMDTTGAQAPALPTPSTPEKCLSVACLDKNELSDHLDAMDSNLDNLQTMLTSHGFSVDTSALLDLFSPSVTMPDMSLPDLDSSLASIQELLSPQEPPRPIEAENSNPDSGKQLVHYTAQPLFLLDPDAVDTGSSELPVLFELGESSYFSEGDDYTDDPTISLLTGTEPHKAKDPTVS
# [7] = cytotoxicity toward DRD oncogenic fibroblasts, dose response, cell-based, non-viral oncogenic, luminescence (AID 1934); format: functional; conditions: Homo sapiens
# BJ [8] = experiment: cytotoxicity toward BJ-TERT-LT-ST fibroblasts, dose response, cell-based, RAS-independent, luminescence (AID 1935); format: functional; conditions: Homo sapiens;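 further: BJ fibroblasts immortalized with TERT plus LT and ST oncogenes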
# BJ [9] = experiment: cells; format: functional, cell-based; conditions: Homo sapiens
# BJ [10] = experiment: cytotoxicity toward BJ-TERT fibroblasts, dose response, cell-based, RAS-independent, luminescence (AID 1933); format: functional; conditions: Homo sapiens
# [11] = HEp-2 cell cytotoxicity, dose response, cytotoxicity control for RSV inhibitor project, HTS (AID 2410); format: functional; conditions: human respiratory syncytial virus
# [12] = molecular target: T4, Heat shock factor protein 1; experiment: inhibition of MG132-induced HSE-luciferase signal, confirmation, cell-based, NIH3T3, luminescence, dose retest (AID 2382); format: functional;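 further: NIH3T3 fibroblasts with HSF1-driven luciferase reporter stressed by proteasome inhibitor MG132; luminescence from HSF1-driven luciferase expression after 8 hours of MG132 stress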
# [13] = molecular target: T5, RNA-binding protein pos-1 (Caenorhabditis elegans, UniProt G5EF15); experiment: inhibitors of POS-1/mex-3 RNA binding, dose response, biochemical, fluorescence polarization (AID 1964);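 further: purified POS-1 fused to maltose binding protein made in E. coli; potency of compounds blocking POS-1 binding to fluorescent RNA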
# T5 sequence (G5EF15 whole entry): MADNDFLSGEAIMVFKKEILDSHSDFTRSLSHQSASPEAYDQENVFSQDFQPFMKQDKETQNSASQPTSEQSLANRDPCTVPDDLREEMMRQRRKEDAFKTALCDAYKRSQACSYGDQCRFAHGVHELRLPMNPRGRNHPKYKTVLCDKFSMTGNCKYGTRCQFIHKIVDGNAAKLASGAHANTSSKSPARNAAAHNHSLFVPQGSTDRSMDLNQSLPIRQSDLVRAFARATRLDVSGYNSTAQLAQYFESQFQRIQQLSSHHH
# [14] = molecular target: T6, Zinc finger protein mex-5 (Caenorhabditis elegans, UniProt Q9XUB2); experiment: MEX-5/TCR-2 RNA interaction inhibitors, dose response, biochemical, C. elegans, fluorescence polarization (AID 1960)
# T6 sequence (Q9XUB2 whole entry): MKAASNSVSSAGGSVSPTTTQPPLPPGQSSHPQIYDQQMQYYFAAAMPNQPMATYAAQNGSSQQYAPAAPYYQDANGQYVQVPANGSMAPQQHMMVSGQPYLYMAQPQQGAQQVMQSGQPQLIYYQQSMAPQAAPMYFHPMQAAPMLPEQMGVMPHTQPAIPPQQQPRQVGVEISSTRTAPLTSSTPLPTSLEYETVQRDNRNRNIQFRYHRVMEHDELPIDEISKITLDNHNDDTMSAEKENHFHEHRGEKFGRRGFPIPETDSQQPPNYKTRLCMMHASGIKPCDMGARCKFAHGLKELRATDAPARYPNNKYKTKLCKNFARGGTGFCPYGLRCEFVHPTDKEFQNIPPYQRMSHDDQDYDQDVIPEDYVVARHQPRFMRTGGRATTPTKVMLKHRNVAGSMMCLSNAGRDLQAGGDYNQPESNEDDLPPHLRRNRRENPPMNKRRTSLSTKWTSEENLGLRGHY
# Glucose-6-phosphate 1-dehydrogenase, sequence (P11413 whole entry): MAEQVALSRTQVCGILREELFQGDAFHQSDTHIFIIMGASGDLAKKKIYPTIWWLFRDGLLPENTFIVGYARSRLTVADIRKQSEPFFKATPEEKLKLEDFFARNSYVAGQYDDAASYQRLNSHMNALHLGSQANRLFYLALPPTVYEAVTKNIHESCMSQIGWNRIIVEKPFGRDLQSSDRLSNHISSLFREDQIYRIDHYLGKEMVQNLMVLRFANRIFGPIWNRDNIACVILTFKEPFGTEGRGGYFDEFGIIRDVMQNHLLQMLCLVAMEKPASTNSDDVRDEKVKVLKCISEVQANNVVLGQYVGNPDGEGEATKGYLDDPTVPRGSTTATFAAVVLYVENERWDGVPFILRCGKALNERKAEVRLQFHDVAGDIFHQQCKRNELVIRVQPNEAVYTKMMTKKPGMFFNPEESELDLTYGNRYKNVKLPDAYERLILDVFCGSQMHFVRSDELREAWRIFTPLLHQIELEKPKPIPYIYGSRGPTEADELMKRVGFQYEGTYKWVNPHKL
# Genome polyprotein, sequence (P29990 2492-3391 limits assumed): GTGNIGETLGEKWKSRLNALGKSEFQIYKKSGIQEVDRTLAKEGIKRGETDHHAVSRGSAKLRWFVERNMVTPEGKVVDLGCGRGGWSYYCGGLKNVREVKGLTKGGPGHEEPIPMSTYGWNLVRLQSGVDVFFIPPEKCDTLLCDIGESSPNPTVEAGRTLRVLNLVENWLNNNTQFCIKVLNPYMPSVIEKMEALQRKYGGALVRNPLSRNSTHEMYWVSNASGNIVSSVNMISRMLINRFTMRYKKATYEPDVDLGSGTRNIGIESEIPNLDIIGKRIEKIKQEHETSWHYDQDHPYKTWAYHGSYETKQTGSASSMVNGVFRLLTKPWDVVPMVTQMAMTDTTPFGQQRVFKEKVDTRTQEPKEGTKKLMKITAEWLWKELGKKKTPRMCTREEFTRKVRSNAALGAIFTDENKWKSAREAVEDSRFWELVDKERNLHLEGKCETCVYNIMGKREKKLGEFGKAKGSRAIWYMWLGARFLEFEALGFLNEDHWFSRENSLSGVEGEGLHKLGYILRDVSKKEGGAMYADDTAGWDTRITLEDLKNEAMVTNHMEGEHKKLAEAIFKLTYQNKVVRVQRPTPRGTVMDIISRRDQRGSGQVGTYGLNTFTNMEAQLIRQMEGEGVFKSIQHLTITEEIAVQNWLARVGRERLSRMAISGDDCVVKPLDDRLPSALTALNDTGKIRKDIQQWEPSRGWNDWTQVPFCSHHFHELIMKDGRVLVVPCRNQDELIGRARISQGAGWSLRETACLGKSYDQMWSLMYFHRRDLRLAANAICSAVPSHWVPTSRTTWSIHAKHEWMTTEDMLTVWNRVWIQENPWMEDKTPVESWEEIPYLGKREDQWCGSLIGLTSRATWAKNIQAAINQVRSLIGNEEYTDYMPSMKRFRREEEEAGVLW
smiles,measurement,setting,value
CCN(CC)c1ccc(/N=C/c2ccc([N+](=O)[O-])o2)cc1,EC50,[1],> 150 µM (inactive)
same,AC50,INS1,43.9 µM (active)
same,EC50,[2],> 38 µM (not active)
O=C(NN=Cc1cc(Br)c(O)c(Br)c1)c1ccccc1NS(=O)(=O)c1cccs1,IC50,Genome polyprotein,27.7 µM (active)
Cc1ccc(C(C2=C(O)CC(C)(C)CC2=O)C2C(=O)CC(C)(C)CC2=O)o1 (centres undefined),IC50,Genome polyprotein,60 µM (active)
same,IC50,[3],56.4 µM (active)
Cc1ccc2nc(C)c3c(c2c1)SCC3,IC50,cells,24.6 µM (active)
Cc1ccc(NC(=O)COc2ccc(/C=N\NC(=O)c3cccnc3)cc2)cc1C,IC50,[4],10 µM (active)
N=c1oc2ccccc2cc1C(=O)NC1CCCCCC1,IC50,cells,> 50 µM (active)
COc1cccc(C(=O)C2CCCN(Cc3cccc4c3OCO4)C2)c1 (centres undefined),EC50,[1],> 160 µM (inactive)
same,EC50,[2],> 38 µM (not active)
O=C(Nc1cccc(S(=O)(=O)NC2=NCCCCC2)c1)C1COc2ccccc2O1 (centres undefined),IC50,[4],5.75 µM (active)
O=C1N=C(Nc2ccc(Cl)cc2)/C(=C/c2ccco2)S1,IC50,[4],1.86 µM (active)
COC(=O)COc1cccc(NC(=O)c2cccc(C)c2)c1,IC50,cells,17.6 µM (active)
Cc1c(C(=O)NNC(=O)c2csc(N3CCOCC3)n2)oc2ccccc12,IC50,cells,13.2 µM (active)
O=S(=O)(c1ccc(F)cc1)n1ccc(-c2cccc(OCc3c(F)cccc3Cl)c2)n1,IC50,Protein skinhead-1,> 100 µM (inactive)
CCOC(=O)N1CCC(N2Cc3cccc(C(=O)NCc4ccc5c(c4)OCO5)c3C2=O)CC1,IC50,[4],15 µM (active)
COc1cc(NCCCn2ccc(NC(=O)OCc3ccccc3)nc2=O)cc(OC)c1OC,IC50,[5],> 80 µM (inactive)
O=C(Nc1ccccc1)Nc1csc2ccccc12,IC50,Protein skinhead-1,> 100 µM (inactive)
CCCCC(=O)NCc1ccc2c(c1)cc(C)n2C,IC50,Protein skinhead-1,> 100 µM (inactive)
O=C(O)c1ccc2c(c1Nc1ccccc1)C(=O)c1ccccc1C2=O,IC50,Genome polyprotein,> 100 µM (active)
C/C(=N/Nc1ccc(C)cc1)C1(C)N(O)C(C)(C)C(c2ccco2)=[N+]1[O-] (centres undefined),EC50,[1],66.1 µM (inconclusive)
same,EC50,[2],> 38 µM (not active)
COc1ccc(C(O)(C(=O)NNc2ccc(C)cc2)c2cccs2)cc1 (centres undefined),EC50,[6],> 260 µM (inactive)
same,EC50,[1],> 160 µM (inactive)
same,EC50,[2],> 38 µM (not active)
O=C1/C(=C/c2ccccc2Cl)SC(=S)N1CCC(=O)N1CCCCC1CCO (centres undefined),EC50,[6],> 260 µM (inactive)
same,EC50,[7],45.3 µM (active)
same,EC50,BJ [8],> 150 µM (not active)
same,EC50,BJ [9],> 150 µM (inconclusive)
same,EC50,BJ [10],19 µM (active)
CC(C)(C)C(=O)O/N=C1/C(=O)N(c2ccccc2)c2ccccc21,IC50,[4],7.51 µM (active)
same,CC50,[11],26.5 µM (active)
CCOC(=O)C(C)On1c(-c2ccc(Cl)cc2)nc2ccc([N+](=O)[O-])cc21 (centres undefined),IC50,Protein skinhead-1,> 100 µM (inactive)
c1ccc(OCCSc2nc3ccccc3o2)cc1,IC50,Protein skinhead-1,32.4 µM (active)
same,EC50,[12],> 195 µM (not active)
Cc1cc(C(=O)O)ccc1-n1c(C)cc(C=C2C(=O)c3ccccc3C2=O)c1C,IC50,[5],> 80 µM (inactive)
same,EC50,[13],> 300 µM (not active)
same,EC50,[14],> 300 µM (not active)
C[N+]1(C)CC2([N+](=O)[O-])CC=C(Oc3ccccc3)C([N+](=O)[O-])(C2)C1 (centres undefined),IC50,[4],6.82 µM (active)
Cc1ccc(OC(=O)c2sc3ncn(C)c(=O)c3c2C)cc1,IC50,cells,15.2 µM (active)
O=c1[nH]c2ccc(NCc3ccccc3OCc3ccc(Cl)cc3)cc2[nH]1,IC50,[5],> 80 µM (inactive)
CCn1c(COc2ccc(=O)n(-c3ccccc3)n2)nnc1SCc1cccc(OC)c1,EC50,[1],> 160 µM (inactive)
same,EC50,[2],> 38 µM (not active)
CC(C)OP(=O)(c1ccc(N(C)C)cc1)C(O)c1ccccc1 (centres undefined),EC50,[1],> 160 µM (inconclusive)
same,EC50,[2],3.06 µM (active)
Cc1ccc(C(=O)CC(=O)COc2ccc(Cl)cc2)cc1,EC50,[1],> 150 µM (inconclusive)
same,EC50,[2],1.62 µM (active)
O=C1/C(=C/c2cccs2)SC(=S)N1CC(=O)N1CCCCC1CCO (centres undefined),IC50,Protein skinhead-1,> 100 µM (inactive)
